# Measured values: a melting point compilation (Tetko et al.)
row,melting point,Structure (SMILES)
1,178 to 180 °C,Cc1cc(C(=O)O)ccc1NC(=O)OC(C)(C)C
2,203 to 205 °C,N#Cc1ccc(OCc2ccc(C(=O)O)o2)cc1
3,169 to 171 °C,CCOC(=O)Cc1nc2cc(C)c(C)cc2[nH]1
4,74 to 76 °C,O=S(=O)(Cl)c1ccccc1-c1ccno1
5,174 to 176 °C,O=C(O)c1cnc(COc2ccccc2)s1
6,139 to 141 °C,Nc1cccc(NC(=O)C2CCCCC2)c1
7,49 to 50 °C,OCCNCc1cccc(OCc2ccccc2Cl)c1
8,154 to 156 °C,CCSc1ccc(Cl)cc1C(=O)O
9,193 to 195 °C,COc1cc(NC(=O)C2CCCC2)c(C(=O)O)cc1OC
10,115 to 117 °C,CCOC(=O)/C(C#N)=C/Nc1ccc(OCC)cc1
11,74 to 76 °C,Cc1nc(-c2ccc(C(C)N)cc2)cs1 (stereo unspecified)
12,273 to 275 °C,O=C(O)c1cccc(NC(=O)c2cccc(Br)c2)c1
13,135 to 137 °C,Cc1ccc(CNC(=O)C(C#N)=CN(C)C)cc1
14,169 to 171 °C,CN1CCCc2cc(/C=C/C(=O)O)ccc21
15,71 to 73 °C,N#CCn1cc(N)cn1
16,157 to 159 °C,CCn1c(SCC(=O)O)nnc1-c1cccs1
17,146 to 148 °C,O=Cc1cn(Cc2ccccc2)nc1-c1cc2ccccc2o1
18,214 to 216 °C,O=c1[nH]c(Cl)cc2ccccc12
19,125 to 127 °C,O=Cc1cn(-c2ccccc2)cn1
20,226 to 228 °C,Nc1ncc(Cl)cc1S(N)(=O)=O
21,58 to 60 °C,Cc1oc(-c2ccco2)nc1CCl
22,167 to 169 °C,O=C(Nc1nccs1)OCC(F)(F)F
23,105 to 107 °C,Nc1ccc(Cl)cc1C(O)c1ccccc1 (stereo unspecified)

row,melting point,Structure (SMILES)
1,98 to 100 °C,Nc1ccccc1Oc1ccncc1
2,94 to 96 °C,Cc1cccc2c1CCC2=O
3,175 to 177 °C,O=C(O)C1CCCN1C(=O)NC1CCCCC1 (stereo unspecified)
4,121 to 123 °C,NNC(=O)N1CCOCC1
5,128 to 130 °C,Cc1nn(-c2ccc(F)cc2)c(C)c1C=O
6,150 to 152 °C,Cc1cc(C)c(OCC(=O)O)c(C)c1
7,164 to 166 °C,O=C(O)c1cccc(Oc2ccc(Cl)cc2)c1
8,171 to 173 °C,CS(=O)(=O)NCCc1ccc(C(=O)O)cc1
9,55 to 57 °C,N#Cc1cc[nH]c1
10,105 to 107 °C,COc1ccc2cc(C#N)ccc2c1
11,178 to 182 °C,Nc1nc(C(=O)O)n[nH]1
12,104 to 106 °C,O=C(O)C1CCN(C(=O)CSc2nnc(-c3ccccc3)o2)CC1
13,145 to 147 °C,O=S(=O)(Cl)CCS(=O)(=O)c1ccc(F)cc1
14,158 to 160 °C,O=C(O)c1oc2ccccc2c1CSC1CCCCC1
15,56 to 58 °C,ClCc1nc(-c2cc(Br)cs2)no1
16,202 to 204 °C,CC(C(=O)Nc1ccc(N)cc1)n1cncn1 (stereo unspecified)
17,82 to 84 °C,COc1cc(F)c(S(=O)(=O)Cl)cc1OC
18,145 to 148 °C,NS(=O)(=O)c1ccc(CCNC(=O)CCl)cc1
19,34 to 36 °C,O=Cc1cccc2c1OCO2
20,239 to 241 °C,Cc1ccc2c(c1)C(=NO)C(=O)N2
21,99 to 101 °C,CC(C)Cn1ncc(C(=O)O)c1C(F)F
22,104 to 106 °C,O=C(CCl)NCCc1cccc2ccccc12
23,59 to 63 °C,CCCC(=O)c1cccc([N+](=O)[O-])c1

row,melting point,Structure (SMILES)
1,167 to 169 °C,Cc1noc(C=Cc2ccc(F)cc2)c1N
2,135 to 137 °C,O=C1CC2(CCSC2)C(=O)N1 (stereo unspecified)
3,99 to 101 °C,CC(C)C(Br)C(=O)NC1CCCC1 (stereo unspecified)
4,157 to 159 °C,N#CCc1cccc(C(N)=O)c1
5,100 to 102 °C,CN(C)C(=O)COc1cccc(N)c1
6,162 to 164 °C,O=C(O)c1cc([N+](=O)[O-])cc(S(=O)(=O)Cl)c1
7,224 to 226 °C,COc1ccc(S(N)(=O)=O)cc1C(=O)O
8,97 to 99 °C,Nc1nc(C(F)(F)F)no1
9,186 to 188 °C,COc1ccc(C(CC(=O)O)NC(C)=O)cc1 (stereo unspecified)
10,170 to 172 °C,O=C(O)c1nccnc1C(=O)NCc1ccc(F)cc1
11,155 to 157 °C,Cc1nnc(CO)n1C
12,187 to 189 °C,CC(C)C(=O)Nc1nc(CC(=O)O)cs1
13,58 to 60 °C,O=C(O)CC1CCc2ccccc21 (stereo unspecified)
14,64 to 66 °C,CC(Cl)C(=O)Nc1ccccc1Oc1ccccc1 (stereo unspecified)
15,68 to 70 °C,CCS(=O)(=O)NCCS(=O)(=O)Cl
16,184 to 186 °C,Cc1nc2cc(NC(=O)CCC(=O)O)ccc2o1
17,219 to 221 °C,Clc1ccc(-c2nnc(Cl)c3ccccc23)cc1Cl
18,104 to 106 °C,COc1ccccc1-c1cc(N)n(-c2ccc(C)cc2)n1
19,223 to 225 °C,Cc1ccc(F)cc1-c1nc2ccccc2[nH]1
20,102 to 104 °C,CS(=O)(=O)Nc1ccccc1N
21,131 to 133 °C,CS(=O)(=O)c1ccc(C(=O)c2ccccc2)cc1
22,135 to 140 °C,COc1ccc(O)c(N)c1
23,88 to 91 °C,CCN(CC)S(=O)(=O)c1ccc(Cl)c([N+](=O)[O-])c1

row,melting point,Structure (SMILES)
1,180 to 182 °C,CC1=CSC(=C(C#N)N=O)N1
2,81 to 83 °C,O=S(=O)(c1ccc(CCl)o1)N1CCCC1
3,133 to 135 °C,COc1ccc(CNC(=O)CCl)cc1C(=O)O
4,119 to 121 °C,COc1ccc(NC(=O)C=CC(=O)O)cc1OC
5,64 to 66 °C,NCC1(O)CCC1
6,88 to 90 °C,CC(=O)CCc1ccc(O)c(F)c1
7,207 to 209 °C,CCCCn1c(N)c(NCc2ccccc2)c(=O)[nH]c1=O
8,76 to 78 °C,CC(CC(=O)O)c1ccccc1C(F)(F)F (stereo unspecified)
9,209 to 211 °C,N#Cc1nc(-c2ccccc2)oc1NN
10,126 to 128 °C,Cc1csc(CC(N)=NO)n1
11,52 to 54 °C,Cc1nn(C)c(Cl)c1Cn1cc(Br)cn1
12,149 to 151 °C,CC1C(=O)NCCN1C(=O)c1ccc(Cl)s1 (stereo unspecified)
13,211 to 213 °C,Sc1nnc(COc2ccc(Cl)cc2)n1Cc1ccccc1
14,134 to 136 °C,Cc1ccnc(NC(=O)C2CCNCC2)c1
15,152 to 154 °C,Cc1ncc(C(=O)O)c(Cl)c1Br
16,135 to 137 °C,CCSc1ccccc1C(=O)O
17,160 to 162 °C,Cc1ccc(-n2cc(C(=O)O)nn2)cc1
18,129 to 131 °C,O=C1CCCc2ccccc2N1
19,204 to 206 °C,Sc1nncn1CCc1ccccn1
20,192 to 194 °C,O=C(O)CNC(=O)Nc1ccc(Br)cc1
21,31 to 33 °C,Cc1ccc(Br)cc1N
22,99 to 101 °C,COc1ccccc1SCC(=O)O
23,324 to 327 °C,Cc1cc(O)cc(O)n1

row,melting point,Structure (SMILES)
1,141 to 143 °C,CC(C)NS(=O)(=O)c1ccc(NN)nc1
2,163 to 165 °C,O=C1CN(C(=O)c2ccc(Cl)nc2)CCN1
3,114 to 116 °C,Cc1cc(C(C)(C)C)cc(C)c1CCNC(=O)CCl
4,67 to 69 °C,C[C@H](N)C(N)=O
5,124 to 126 °C,O=C(O)C1CCCN1C(=O)c1ccccc1OC(F)F (stereo unspecified)
6,108 to 111 °C,NS(=O)(=O)CCCC(=O)O
7,149 to 151 °C,Cc1cn2c(CO)c(C)nc2s1
8,104 to 106 °C,O=C1COc2ccc(F)cc21
9,205 to 210 °C,Cc1nn(-c2ccc(F)cc2)c2sc(C(=O)O)cc12
10,110 to 112 °C,CC(C)N(C)C(=O)C1CCN(C(=O)CCl)CC1
11,59 to 63 °C,Cc1ccc(C(N)=S)c(C)c1
12,138 to 140 °C,Cc1nnc(-c2ccc(Br)c(F)c2)o1
13,84 to 86 °C,CC(O)Cc1nc2ccccc2s1 (stereo unspecified)
14,157 to 159 °C,O=C(c1cc(Cl)ccc1[N+](=O)[O-])N1CCCC1
15,74 to 76 °C,Nc1ccc(Br)c(I)c1
16,117 to 119 °C,O=C(O)Cc1sc(-c2ccccc2)nc1-c1cccs1
17,181 to 183 °C,Cc1ccc(C(N)=O)c(O)c1
18,156 to 158 °C,CN1N=C(C(=O)O)CCC1=O
19,91 to 93 °C,COc1cc(-c2ccccc2)ccc1C=O
20,58 to 60 °C,CNS(=O)(=O)c1cccc(F)c1
21,160 to 162 °C,NC(=O)c1nnn(-c2ccccc2)c1N
22,201 to 203 °C,Cc1ccc(F)c(-n2cc(O)c(C(=O)O)n2)c1
23,179 to 181 °C,Nc1ccc(F)c(NS(=O)(=O)c2cccs2)c1

row,melting point,Structure (SMILES)
1,167 to 169 °C,O=C1CCS(=O)(=O)CC1
2,108 to 110 °C,COC(=O)c1ccc(-c2nc(CCl)cs2)cc1
3,189 to 191 °C,Nc1cccc(S(=O)(=O)N2CCNC(=O)C2)c1
4,148 to 150 °C,N#Cc1c(Cl)nc(Cl)c(Cl)c1Cl
5,119 to 121 °C,Cc1nc(-c2ccc(Br)cc2)sc1C(C)O (stereo unspecified)
6,196 to 198 °C,O=C(O)c1csc(-c2ccc(F)cc2)n1
7,119 to 121 °C,NC(=O)CCSc1ccc(F)cc1
8,175 to 177 °C,CC1=NN(Cc2ccccc2)C(=O)C1
9,59 to 61 °C,CC(C)C(C(=O)O)c1ccc(F)cc1 (stereo unspecified)
10,212 to 214 °C,O=C(O)c1c[nH]nn1
11,114 to 116 °C,Cc1ccc2[nH]c3c(c2c1)CC(C)(C)CC3
12,168 to 170 °C,Cc1ccc(NC(=O)CC(N)=NO)cc1
13,50 to 52 °C,Cc1ccc2c(c1C)OCCCC2=O
14,144 to 146 °C,NC(=S)Cc1cn2ccccc2n1
15,141 to 143 °C,O=CC1=C(N2CCOCC2)C(=Cc2ccccc2)CC1
16,137 to 139 °C,CC(C)(C)NS(=O)(=O)c1cccc(N)c1
17,105 to 107 °C,Cc1ccc2ncnc(Cl)c2c1
18,253 to 255 °C,O=C1CC(=O)Nc2cc(S(=O)(=O)Cl)ccc2N1
19,155 to 157 °C,Cc1c(NS(=O)(=O)c2cc(C(=O)O)cc(Cl)c2Cl)c(=O)n(-c2ccccc2)n1C
20,144 to 146 °C,NNc1ccc(S(=O)(=O)NCc2ccco2)cn1
21,138 to 140 °C,Cc1cc(=O)[nH]cn1
22,64 to 66 °C,O=C(CN1CCNCC1)N1CCCc2ccccc21
23,226 to 228 °C,O=C(O)c1cnc(-c2ccoc2)s1

row,Structure (SMILES),melting point
1,O=S1(=O)CCNC2CCCCC21 (stereo unspecified),75 to 77 °C
2,CC(=O)NC(=O)CCl,113 to 115 °C
3,CC(C)(C)CCS(=O)(=O)Cl,33 to 35 °C
4,Cc1cc(Cl)c(CCl)c(Cl)n1,45 to 47 °C
5,NCCc1ccc(OCC(N)=O)cc1,96 to 98 °C
6,OC(CNC1CC1)c1ccc(F)cc1 (stereo unspecified),84 to 86 °C
7,Cc1cc(C2CCCNC2)n[nH]1 (stereo unspecified),104 to 106 °C
8,CCN1CCc2nc3ccccc3c(C(=O)O)c2C1,278 to 280 °C
